Data: patent US20250319172A1, “ANTICANCER VACCINE COMPOSITION COMPRISING HSP90 ANTIGENIC PEPTIDE AND USE THEREOF” (ASTON SCI. INC., priority 2021, published 2025)

System: HSP90 antigenic peptide-specific IFN-γ production in spleen cells
Assay: IFN-γ ELISpot of splenocytes after test vaccination (Th1 immune response), Example 1
Format: in vivo, C57BL/6 mice
Settings: antigen HSP90 peptide of SEQ ID NO: 1; s.c. three times every 10 days; splenocytes 10 days after last inoculation; FIG. 1A
Experimental: To analyze the efficacy of antigenic peptides selected from HSP90 (see Table 1) and various adjuvants and liposomes, test vaccines were prepared with the compositions in Table 2 and Table 3. In the case of G6 and G7 formulations, since a liposome is included in the formulations, the drug release rate is slowed, and in this regard, the amount of antigenic peptide was reduced to 20% when preparing the test vaccine. The prepared test vaccine G to G7 formulations were immunized using C57BL/B6 mice (female, 7 weeks old), 4 mice per group. […]
The test vaccine was inoculated with each vaccine formulation by subcutaneous injection three times every 10 days for 4 mice in each group, and splenocytes were isolated from the spleens of mice sacrificed 10 days after the last inoculation, the specific response to each HSP90 antigenic peptide was measured through the ELISpot method for IFN-γ or IL-10 stimulated by the HSP90 antigenic peptide (stimulant) of SEQ ID NO: 1 or SEQ ID NO: 2 according to the previously known method by Disis et al. (J Clin Oncol. 2009 Oct. 1; 27 (28): 4685-92).
If HSP90 antigenic peptide-specific IFN-γ production increased in spleen cells measured by the ELISpot method after test vaccination, the Th1 immune response was considered activated, and if the HSP90 antigenic peptide-specific IL-10 production increased, the Th2 immune response was considered activated.

## LYVRRVFIMDNCEEL [SEQ ID NO: 1, HSP90 antigenic peptide, region p485-499 of HSP90]
  HSP90-specific Th1 immune response (IFN-γ ELISpot): effectively induces HSP90-specific T cell immune response
